According to ChEMBL document CHEMBL1152560, “Substituted 2-arylbenzothiazoles as kinase inhibitors: hit-to-lead optimization” (Bioorg Med Chem, 2009):

Assays:
[1] = molecular target: Protein kinase C eta type (Homo sapiens) (UniProt P24723); test: Residual activity of PKCeta at 0.1 uM by microplate scintillation counting
[2] = molecular target: T1, Tyrosine-protein kinase Tec (Homo sapiens) (UniProt P42680); test: Residual activity of TEC at 10 uM by microplate scintillation counting
T1 sequence (whole entry): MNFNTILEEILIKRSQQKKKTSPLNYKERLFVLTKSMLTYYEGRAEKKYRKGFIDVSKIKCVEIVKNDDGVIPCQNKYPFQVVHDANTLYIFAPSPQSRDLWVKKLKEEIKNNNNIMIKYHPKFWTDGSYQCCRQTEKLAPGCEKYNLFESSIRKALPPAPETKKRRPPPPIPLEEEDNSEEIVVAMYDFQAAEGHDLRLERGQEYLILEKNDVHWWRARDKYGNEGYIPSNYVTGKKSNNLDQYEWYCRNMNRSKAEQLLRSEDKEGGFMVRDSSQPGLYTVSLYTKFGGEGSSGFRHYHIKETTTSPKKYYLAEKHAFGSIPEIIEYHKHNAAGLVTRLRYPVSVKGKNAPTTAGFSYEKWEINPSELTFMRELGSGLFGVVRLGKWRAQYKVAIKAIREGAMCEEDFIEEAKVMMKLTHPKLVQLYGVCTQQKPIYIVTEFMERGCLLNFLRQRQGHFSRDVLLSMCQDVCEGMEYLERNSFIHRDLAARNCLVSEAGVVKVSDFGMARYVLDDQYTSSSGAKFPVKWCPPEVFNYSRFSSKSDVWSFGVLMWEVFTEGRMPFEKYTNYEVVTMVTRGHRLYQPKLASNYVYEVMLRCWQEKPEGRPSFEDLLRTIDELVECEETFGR

[3] = molecular target: Calcium/calmodulin-dependent protein kinase type II subunit delta (Homo sapiens) (UniProt Q13557); test: Residual activity of CAMK2D at 0.1 uM by microplate scintillation counting
[4] = molecular target: T2, Serine/threonine-protein kinase TAO2 (Homo sapiens) (UniProt Q9UL54); test: Residual activity of TAOK2 at 0.1 uM by microplate scintillation counting
T2 sequence (whole entry): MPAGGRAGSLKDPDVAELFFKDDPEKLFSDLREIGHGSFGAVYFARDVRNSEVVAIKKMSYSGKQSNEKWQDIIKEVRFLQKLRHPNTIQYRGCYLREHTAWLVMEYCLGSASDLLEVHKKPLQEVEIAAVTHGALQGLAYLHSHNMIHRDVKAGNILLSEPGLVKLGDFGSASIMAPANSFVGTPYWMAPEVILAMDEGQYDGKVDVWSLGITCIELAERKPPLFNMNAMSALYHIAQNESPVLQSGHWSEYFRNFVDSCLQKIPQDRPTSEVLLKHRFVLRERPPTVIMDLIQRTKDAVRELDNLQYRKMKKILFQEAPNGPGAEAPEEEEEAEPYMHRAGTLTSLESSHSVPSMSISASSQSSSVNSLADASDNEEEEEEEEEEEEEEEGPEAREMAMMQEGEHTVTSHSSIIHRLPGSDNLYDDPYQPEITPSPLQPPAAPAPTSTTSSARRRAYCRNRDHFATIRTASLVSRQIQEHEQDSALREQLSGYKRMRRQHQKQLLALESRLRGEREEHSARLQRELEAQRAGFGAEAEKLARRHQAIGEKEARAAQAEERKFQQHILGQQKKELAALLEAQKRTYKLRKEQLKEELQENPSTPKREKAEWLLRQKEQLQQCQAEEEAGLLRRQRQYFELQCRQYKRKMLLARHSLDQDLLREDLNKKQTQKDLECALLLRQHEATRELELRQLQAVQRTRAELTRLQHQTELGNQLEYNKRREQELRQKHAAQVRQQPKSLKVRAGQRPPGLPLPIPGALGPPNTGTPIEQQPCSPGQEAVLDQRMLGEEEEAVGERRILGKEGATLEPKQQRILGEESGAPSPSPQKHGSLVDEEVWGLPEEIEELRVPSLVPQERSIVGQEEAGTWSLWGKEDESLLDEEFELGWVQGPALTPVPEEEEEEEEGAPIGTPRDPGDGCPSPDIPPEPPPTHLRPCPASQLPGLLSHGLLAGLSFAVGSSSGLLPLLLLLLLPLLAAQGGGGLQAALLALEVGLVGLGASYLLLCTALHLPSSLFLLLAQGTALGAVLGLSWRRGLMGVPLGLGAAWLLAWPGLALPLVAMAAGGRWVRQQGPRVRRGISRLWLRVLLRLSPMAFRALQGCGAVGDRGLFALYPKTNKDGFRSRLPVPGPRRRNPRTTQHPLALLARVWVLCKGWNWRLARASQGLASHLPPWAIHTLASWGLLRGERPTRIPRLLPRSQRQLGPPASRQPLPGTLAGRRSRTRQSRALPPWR

[5] = tested on: T3, Receptor-type tyrosine-protein kinase FLT3 (Homo sapiens), P36888 [D835Y]; test: Residual activity of FLT3 D835Y mutant at 0.1 uM by microplate scintillation counting
T3 sequence (whole entry): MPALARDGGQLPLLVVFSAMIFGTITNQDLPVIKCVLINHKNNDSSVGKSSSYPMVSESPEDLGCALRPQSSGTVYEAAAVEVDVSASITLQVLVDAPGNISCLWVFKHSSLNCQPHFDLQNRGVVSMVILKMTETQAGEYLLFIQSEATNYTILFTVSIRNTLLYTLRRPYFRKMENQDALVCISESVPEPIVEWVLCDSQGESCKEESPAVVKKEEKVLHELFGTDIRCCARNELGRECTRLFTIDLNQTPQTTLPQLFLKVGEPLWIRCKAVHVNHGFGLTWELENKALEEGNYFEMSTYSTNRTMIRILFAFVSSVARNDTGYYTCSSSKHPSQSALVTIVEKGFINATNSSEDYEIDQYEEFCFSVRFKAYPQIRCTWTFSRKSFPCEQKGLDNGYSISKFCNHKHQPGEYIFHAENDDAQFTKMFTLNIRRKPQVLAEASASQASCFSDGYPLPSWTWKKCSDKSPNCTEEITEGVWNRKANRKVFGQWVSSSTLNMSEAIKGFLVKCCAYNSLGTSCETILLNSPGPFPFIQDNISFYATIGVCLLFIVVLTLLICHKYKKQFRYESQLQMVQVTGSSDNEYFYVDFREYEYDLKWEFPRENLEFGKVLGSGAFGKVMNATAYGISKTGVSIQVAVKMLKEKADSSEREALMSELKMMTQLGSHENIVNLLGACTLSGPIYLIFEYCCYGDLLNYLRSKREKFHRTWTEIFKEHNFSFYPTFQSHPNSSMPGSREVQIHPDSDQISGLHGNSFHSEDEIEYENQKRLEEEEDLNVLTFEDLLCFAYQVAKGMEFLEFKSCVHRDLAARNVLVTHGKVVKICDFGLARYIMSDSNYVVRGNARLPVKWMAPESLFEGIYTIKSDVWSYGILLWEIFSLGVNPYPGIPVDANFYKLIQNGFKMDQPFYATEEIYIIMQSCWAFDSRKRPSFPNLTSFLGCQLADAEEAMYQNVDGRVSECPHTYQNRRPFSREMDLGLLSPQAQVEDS

[6] = molecular target: Homeodomain-interacting protein kinase 1 (Homo sapiens) (UniProt Q86Z02); test: Residual activity of HIPK1 at 10 uM by microplate scintillation counting
Homeodomain-interacting protein kinase 1 (Homo sapiens), sequence (Q86Z02 whole entry, looked up): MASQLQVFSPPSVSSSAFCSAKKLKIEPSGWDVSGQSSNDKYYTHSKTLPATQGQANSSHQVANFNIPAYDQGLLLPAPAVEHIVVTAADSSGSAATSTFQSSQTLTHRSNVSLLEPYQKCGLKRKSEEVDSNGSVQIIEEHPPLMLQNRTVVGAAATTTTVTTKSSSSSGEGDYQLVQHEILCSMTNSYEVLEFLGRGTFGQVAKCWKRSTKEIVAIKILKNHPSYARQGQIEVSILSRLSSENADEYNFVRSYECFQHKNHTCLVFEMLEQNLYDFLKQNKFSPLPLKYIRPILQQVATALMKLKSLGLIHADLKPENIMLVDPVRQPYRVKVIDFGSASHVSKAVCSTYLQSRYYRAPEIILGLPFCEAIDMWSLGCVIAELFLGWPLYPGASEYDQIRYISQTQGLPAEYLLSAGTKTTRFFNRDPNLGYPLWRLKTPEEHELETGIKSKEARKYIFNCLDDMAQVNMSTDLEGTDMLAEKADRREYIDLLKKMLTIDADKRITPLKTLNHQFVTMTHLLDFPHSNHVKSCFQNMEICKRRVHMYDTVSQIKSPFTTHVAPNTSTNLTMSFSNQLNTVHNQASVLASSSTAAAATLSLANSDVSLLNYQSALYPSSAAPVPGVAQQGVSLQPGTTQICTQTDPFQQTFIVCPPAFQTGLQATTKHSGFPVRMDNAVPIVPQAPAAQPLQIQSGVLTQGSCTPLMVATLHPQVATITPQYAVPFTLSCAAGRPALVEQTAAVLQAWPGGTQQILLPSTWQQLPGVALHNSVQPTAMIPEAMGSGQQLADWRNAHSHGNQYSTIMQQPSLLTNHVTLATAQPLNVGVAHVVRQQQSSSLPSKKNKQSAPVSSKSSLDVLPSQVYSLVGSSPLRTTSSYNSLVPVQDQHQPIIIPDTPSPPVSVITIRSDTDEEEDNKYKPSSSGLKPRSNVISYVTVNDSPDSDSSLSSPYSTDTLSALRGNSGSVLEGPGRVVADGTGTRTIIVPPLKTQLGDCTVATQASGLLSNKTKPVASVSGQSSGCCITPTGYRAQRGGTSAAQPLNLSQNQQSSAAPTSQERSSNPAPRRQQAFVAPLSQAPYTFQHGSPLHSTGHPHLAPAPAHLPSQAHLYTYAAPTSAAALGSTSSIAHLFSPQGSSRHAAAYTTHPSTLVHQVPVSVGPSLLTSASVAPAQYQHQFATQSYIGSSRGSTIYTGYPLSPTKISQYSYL

Protein kinase C eta type (Homo sapiens), sequence (P24723 whole entry): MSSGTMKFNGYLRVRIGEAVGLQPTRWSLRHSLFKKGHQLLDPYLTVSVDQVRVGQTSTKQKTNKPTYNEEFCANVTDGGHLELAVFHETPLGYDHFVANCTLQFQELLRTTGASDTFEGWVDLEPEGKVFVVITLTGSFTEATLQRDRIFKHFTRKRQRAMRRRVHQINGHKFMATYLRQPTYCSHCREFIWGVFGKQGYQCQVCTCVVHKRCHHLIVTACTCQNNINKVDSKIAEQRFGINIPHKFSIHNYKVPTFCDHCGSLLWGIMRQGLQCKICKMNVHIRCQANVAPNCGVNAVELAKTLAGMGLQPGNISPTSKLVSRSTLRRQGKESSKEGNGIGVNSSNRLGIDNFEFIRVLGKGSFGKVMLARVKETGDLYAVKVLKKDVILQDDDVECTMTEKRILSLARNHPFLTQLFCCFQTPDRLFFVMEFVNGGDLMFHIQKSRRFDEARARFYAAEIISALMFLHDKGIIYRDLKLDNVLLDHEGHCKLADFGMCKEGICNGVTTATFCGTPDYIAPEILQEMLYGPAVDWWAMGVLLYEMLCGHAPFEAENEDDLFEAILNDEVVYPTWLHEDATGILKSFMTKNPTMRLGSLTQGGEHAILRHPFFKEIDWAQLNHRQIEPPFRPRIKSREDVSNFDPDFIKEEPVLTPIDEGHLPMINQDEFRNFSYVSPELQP
Calcium/calmodulin-dependent protein kinase type II subunit delta (Homo sapiens), sequence (Q13557 whole entry): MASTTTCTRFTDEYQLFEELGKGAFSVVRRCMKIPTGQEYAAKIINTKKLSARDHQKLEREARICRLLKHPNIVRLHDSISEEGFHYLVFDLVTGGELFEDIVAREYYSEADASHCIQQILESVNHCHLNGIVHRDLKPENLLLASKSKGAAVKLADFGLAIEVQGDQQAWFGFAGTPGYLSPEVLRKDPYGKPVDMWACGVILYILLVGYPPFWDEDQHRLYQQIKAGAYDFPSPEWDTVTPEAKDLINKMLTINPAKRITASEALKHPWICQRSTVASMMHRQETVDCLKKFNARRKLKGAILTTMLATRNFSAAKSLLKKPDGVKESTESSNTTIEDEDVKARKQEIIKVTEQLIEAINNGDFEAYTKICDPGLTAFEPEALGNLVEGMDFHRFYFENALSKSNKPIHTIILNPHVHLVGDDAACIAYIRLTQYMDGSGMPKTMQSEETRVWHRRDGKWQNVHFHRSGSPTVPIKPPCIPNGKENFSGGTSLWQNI

residual activity [1] | residual activity [2] | residual activity [3] | residual activity [4] | residual activity [5] | residual activity [6] | SMILES
117% | 45% | 87% | 102% | 83% | 103% | COc1cc2c(Oc3ccc(-c4nc5ccccc5s4)cc3)ncnc2cc1OCCCN1CCCC1
104% | 25% | 105% | 108% | 79% | 142% | COc1cc2c(Oc3ccc(-c4nc5ccccc5s4)cc3F)ncnc2cc1OCCCN1CCN(C)CC1
97% | 61% | 92% | 92% | 86% | 132% | COc1cc2c(Oc3ccc(-c4nc5ccccc5s4)cc3)ncnc2cc1OCCCN1CCN(C)CC1
